# According to patent US7709634B2, “Amorphous form of rifaximin and processes for its preparation” (Apotex PharmAchem Inc., priority 2007, dated 2010):
# Test: Polymorphic stability on exposure to ambient humidity, checked by PXRD
# Format: physicochemical
# Conditions: exposure to ambient humidity for a period of 10 days
# Excerpt: High yield of amorphous form of rifaximin is isolated by the processes of the present invention and it has high chemical purity and retains acceptable amounts of residual solvents.
structure (smiles),measurement,value
"CO[C@H]1/C=C/O[C@@]2(C)Oc3c(C)c(O)c4c(O)c(c5c(nc6cc(C)ccn65)c4c3C2=O)NC(=O)/C(C)=C\C=C\[C@H](C)[C@H](O)[C@@H](C)[C@@H](O)[C@@H](C)[C@H](OC(C)=O)[C@@H]1C [amorphous form of rifaximin, (2S,16Z,18E,20S,21S,22R,23R,24R,25S,26S,27S,28E)-5,6,21,23,25-pentahydroxy-27-methoxy-2,4,11,16,20,22,24,26-octamethyl-2,7-(epoxypentadeca-[1,11,13]trienimino)benzofuro[4,5-e]pyrido[1,2-α]-benzimidazole-1,15(2H)-dione,25-acetate]","polymorphic form after exposure to ambient humidity, as indicated by PXRD spectroscopy",did not change the polymorphic form
